According to publication PMC11668362, “On the function of TRAP substrate-binding proteins: the isethionate-specific binding protein IseP” (Biochemical Journal, 2024):

target: T1, OaIseP (isethionate-specific TRAP substrate-binding protein IseP) (Oleidesulfovibrio alaskensis, UniProt Q312S0); assay: not given; design: gene dctP; without the native signal peptide; N-terminal His-tag removed with HRV 3C protease; DSF thermal shift with SYPRO Orange, PM4A Biolog compound screen, change of derivative melting temperature; details: PM4A Biolog screen, compound concentration not disclosed; binder
Target sequence in this assay (Q312S0 24-336): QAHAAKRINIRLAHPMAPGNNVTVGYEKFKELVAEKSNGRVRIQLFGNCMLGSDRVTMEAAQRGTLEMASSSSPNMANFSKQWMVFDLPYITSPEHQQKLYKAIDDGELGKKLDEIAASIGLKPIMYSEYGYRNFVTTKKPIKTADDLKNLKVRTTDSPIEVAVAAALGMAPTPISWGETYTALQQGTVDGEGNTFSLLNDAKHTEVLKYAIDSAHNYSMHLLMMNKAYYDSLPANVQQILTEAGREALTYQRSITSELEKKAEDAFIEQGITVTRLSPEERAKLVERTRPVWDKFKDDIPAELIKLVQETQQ

Row | Structure (SMILES) | ΔTmD (°C)
1 | NC(=O)CCCCC1CCSS1 (racemic) [DL-lipoamide] | 0.60 ± 0.38 °C
2 | N[C@@H](CS)C(=O)NCC(=O)O [Cys-Gly] | 1.14 ± 0.17 °C
3 | O=P(O)(O)O[C@H]1O[C@H](CO)[C@@H](O)[C@H](O)[C@H]1O [D-glucose-1-phosphate] | 0.92 ± 0.26 °C
4 | O=P(O)(O)OC1O[C@H](CO)[C@@H](O)[C@H](O)[C@@H]1O (stereo partly drawn) [D-mannose-1-phosphate] | 0.69 ± 0.31 °C
5 | O=P(O)(O)OC[C@H]1OC(O)[C@@H](O)[C@@H](O)[C@@H]1O (stereo partly drawn) [D-mannose-6-phosphate] | -0.09 ± 0.47 °C
6 | CSCC[C@@H](N)C(=O)O [D-methionine] | -0.62 ± 0.38 °C
7 | CSCC[C@H](NC(=O)CN)C(=O)O [Gly-Met] | -0.01 ± 0.18 °C
8 | N[C@@H](CSCSC[C@H](N)C(=O)O)C(=O)O [L-djenkolic acid] | -0.32 ± 0.28 °C
9 | C[S+]([O-])CC[C@H](N)C(=O)O (stereo partly drawn) [L-methionine sulfoxide] | 0.29 ± 0.11 °C
10 | CSCC[C@H](N)C(=O)O [L-methionine] | -0.92 ± 0.37 °C
11 | CC(=O)N[C@@H](CS)C(=O)O [N-acetyl-L-cysteine] | -0.64 ± 0.24 °C
12 | CCCCS(=O)(=O)O [butane sulfonate] | 0.41 ± 0.46 °C
13 | N[C@@H](CCSC[C@H](N)C(=O)O)C(=O)O [cystathionine] | 0.61 ± 0.21 °C
14 | NCCS [cysteamine] | 0.35 ± 0.00 °C
15 | N[C@@H](CCC(=O)N[C@@H](CS)C(=O)NCC(=O)O)C(=O)O [glutathione] | -0.67 ± 0.37 °C
16 | NCCS(=O)O [hypotaurine] | -0.68 ± 0.46 °C
17 | O=P(O)(O)O[C@H]1[C@H](OP(=O)(O)O)[C@@H](OP(=O)(O)O)[C@H](OP(=O)(O)O)[C@@H](OP(=O)(O)O)[C@H]1OP(=O)(O)O [inositol hexaphosphate] | 0.46 ± 0.33 °C
18 | O=S(=O)(O)CCO [isethionate, 2-hydroxyethane sulfonate] | 6.52 ± 0.18 °C
19 | CS(=O)(=O)O [methane sulfonic acid] | 0.23 ± 0.28 °C
20 | CN(CC(=O)O)C(=N)NP(=O)(O)O [phospho-creatine] | 0.41 ± 0.40 °C
21 | O=S1(=O)CCCC1 [tetramethylene sulfone] | 0.23 ± 0.11 °C
22 | NC(N)=S [thiourea] | -0.73 ± 0.31 °C

The remaining lines, values ahead:

Row | ΔTmD (°C) | Structure (SMILES)
23 | 1.14 ± 0.17 °C | N[C@H](CS)C(=O)O [D-cysteine]
24 | -0.85 ± 0.37 °C | O=C[C@H](O)[C@@H](O)[C@H](O)[C@H](O)COP(=O)(O)O [D-glucose-6-phosphate]
25 | 0.11 ± 0.28 °C | N[C@@H](CS(=O)(=O)O)C(=O)O [L-cysteic acid]
26 | 0.53 ± 0.00 °C | N[C@@H](CS(=O)O)C(=O)O [L-cysteine sulfinate]
27 | -0.68 ± 0.11 °C | N[C@@H](CS)C(=O)O [L-cysteine]
28 | 0.44 ± 0.13 °C | CS(=O)(=O)CC[C@H](N)C(=O)O [L-methionine sulfone]
29 | 0.05 ± 0.42 °C | N[C@H](COP(=O)(O)O)C(=O)O [O-phospho-D-serine]
30 | 0.87 ± 0.11 °C | N[C@H](Cc1ccc(OP(=O)(O)O)cc1)C(=O)O [O-phospho-D-tyrosine]
31 | -0.62 ± 0.28 °C | C[C@@H](OP(=O)(O)O)[C@H](N)C(=O)O [O-phospho-L-threonine]
32 | -0.73 ± 0.33 °C | N[C@@H](Cc1ccc(OP(=O)(O)O)cc1)C(=O)O [O-phospho-L-tyrosine]
33 | -0.41 ± 0.48 °C | CSC[C@H](N)C(=O)O [S-methyl-L-cysteine]
34 | -0.30 ± 0.29 °C | O=P(O)(O)OC(CO)CO [b-glycerol phosphate]
35 | -0.49 ± 0.28 °C | NC(=O)OP(=O)(O)O [carbamoyl phosphate]
36 | -0.46 ± 0.10 °C | N[C@@H](CSC[C@H](N)C(=O)O)C(=O)O [lanthionine]
37 | 0.31 ± 0.21 °C | O=C(O)COP(=O)(O)O [phospho-glycolic acid]
38 | -0.63 ± 0.24 °C | C=C(OP(=O)(O)O)C(=O)O [phosphoenolpyruvate]

target: T1, OaIseP (isethionate-specific TRAP substrate-binding protein IseP); assay: biochemical; design: gene dctP; details: not given
Target sequence in this assay (Q312S0 24-336 limits assumed): as the sequence (Q312S0 24-336) above

Row | Kd | Structure (SMILES)
39 | 950 nM | O=S(=O)(O)CCO [isethionate, 2-hydroxyethane sulfonate]

target: T1, OaIseP (isethionate-specific TRAP substrate-binding protein IseP); assay: X-ray crystal structure ([…] Å), open conformation; no significant DSF shift at […]; design: gene dctP; details: not given
Target sequence in this assay (Q312S0 24-336 limits assumed): as the sequence (Q312S0 24-336) above

Row | Structure (SMILES) | X-ray crystal structure (1.65 Å), open conformation; no significant DSF shift at
40 | O=S(=O)(O)CCN1CCOCC1 [MES, 2-(N-morpholino)ethanesulfonic acid] | In both HEPES- and MES-bound structures, the sulfonate groups form a salt bridge to Arg177

target: T1, OaIseP (isethionate-specific TRAP substrate-binding protein IseP); assay: as above; design: gene dctP; details: not given; remark: another data set of the same source
Target sequence in this assay (Q312S0 24-336 limits assumed): as the sequence (Q312S0 24-336) above

Row | Structure (SMILES) | X-ray crystal structure (1.89 Å), open conformation; no significant DSF shift at
41 | O=S(=O)(O)CCN1CCN(CCO)CC1 [HEPES, 4-(2-hydroxyethyl)-1-piperazineethanesulfonic acid] | we were able to confidently model HEPES and MES buffer constituents from the crystallisation conditions into the densities
